Reference: patent publication US20220251084A1, “PROGRANULIN MODULATORS AND METHODS OF USING THE SAME” (ARKUDA THERAPEUTICS, priority 2019, published 2022)

test system: progranulin (PGRN) secretion, BV-2 cells; assay: PGRN assay: progranulin induction cellular assay (ELISA of secreted mouse PGRN); type: cell-based; conditions: not given
Description: Cellular Assays: To measure the efficacy of compounds, a progranulin induction cellular assay in mouse primary microglia (pMG), primary cortical neurons, and BV-2 cell lines is used. BV-2 cells are split the day before plating into a 96 well plate format at approximately 80%. Cells should be plated the day before and allowed for 1 hour attachment period and for 16 hour incubation. […] Standard ELISA kits to measure PGRN are available from vendors such as Adipogen, R&D, and Biovendor.

Compound	EC50
O=C(O[C@@H]1CN2CCC1CC2)N1CCc2cccnc2[C@H]1c1ccc(F)cc1 [Compound 2055, (S)-quinuclidin-3-yl 8-(4-fluorophenyl)-5,6-dihydro-1,7-naphthyridine-7(8H)-carboxylate]	3.3 µM

same assay, conditions: Mus musculus, BV-2

Compound	EC50
CNC(=O)c1ccc2c(c1)[C@@H](c1ccc(F)cc1)N(C(=O)O[C@@H]1CN3CCC1CC3)CC2 [Compound 2066]	> 10 µM
CS(=O)(=O)c1ccc2c(c1)[C@H](c1ccc(F)cc1)N(C(=O)O[C@@H]1CN3CCC1CC3)CC2 [Compound 2031]	5.75 µM
CNC(=O)c1ccc2c(c1)CCN(C(=O)O[C@@H]1CN3CCC1CC3)[C@H]2c1ccc(F)cc1 [Compound 2100]	> 10 µM

same assay, conditions: Mus musculus, BV-2, PGRN assay, Table C; secreted mouse PGRN in cell culture medium, ELISA

Compound	EC50
N#Cc1ccc2c(c1)[C@@H](c1ccc(F)cc1)N(C(=O)N[C@@H]1CN3CCC1CC3)CC2 [Compound 2039, 7-cyano-1-(4-fluorophenyl)-N—((S)-quinuclidin-3-yl)-3,4-dihydroisoquinoline-2(1H)-carboxamide]	> 10 µM
O=C(O[C@H]1CCNC1)N1CCc2ccccc2[C@@H]1c1ccc(F)cc1 [Compound 2180, (1S)—((S)-pyrrolidin-3-yl)-1-(4-fluorophenyl)-3,4-dihydroisoquinoline-2(1H)-carboxylate]	0.083 µM
CNC(=O)c1ccc2c(c1)[C@H](c1ccc(F)cc1)N(C(=O)OCC13CCN(CC1)CC3)CC2 [Compound 2059]	> 10 µM
CN1C[C@@H]2[C@@H](COC(=O)N3CCc4ccccc4[C@@H]3c3ccc(F)cc3)[C@@H]2C1 [Compound 2023]	1.18 µM
C#CCN1CCC(COC(=O)N2CCc3ccccc3[C@@H]2c2ccc(F)cc2)CC1 [Compound 2194, (1-(prop-2-yn-1-yl)piperidin-4-yl)methyl (S)-1-(4-fluorophenyl)-3,4-dihydroisoquinoline-2(1H)-carboxylate]	3.2 µM
Fc1ccc(C2c3ccccc3CCN2C(C[C@@H]2CN3CCC2CC3)C(F)(F)F)cc1 (single isomer, unassigned) [Compound 2132]	3.07 µM
CN1CCC(COC(=O)N2CCc3ccccc3[C@H]2c2cc(F)c(F)c(F)c2)CC1 [Compound 2143]	7.75 µM
C#CCOc1ccc2c(c1)[C@H](c1ccc(F)cc1)N(C(=O)N[C@@H]1CN3CCC1CC3)CC2 [Compound 2115, (S)-1-(4-fluorophenyl)-7-(prop-2-yn-1-yloxy)-N—((S)-quinuclidin-3-yl)-3,4-dihydroisoquinoline-2(1H)-carboxamide]	8.37 µM
O=C(OCC12CCN(CC1)CC2)N1CCc2ccccc2[C@@H]1c1cccc(F)c1F [Compound 2112]	8.27 µM
CNC(=O)c1ccc2c(c1)[C@H](c1ccc(F)cc1)N(C(=O)N[C@@H]1CN3CCC1CC3)CC2 [Compound 2118, (S)-1-(4-fluorophenyl)-N7-methyl-N2-((S)-quinuclidin-3-yl)-3,4-dihydroisoquinoline-2,7(1H)-dicarboxamide]	> 10 µM
O=C(N[C@@H]1CCCNC1)N1CCc2ccccc2[C@@H]1c1ccc(F)cc1 [Compound 2172]	0.43 µM
C#CCN1CCC(OC(=O)N2CCc3ccccc3[C@@H]2c2ccc(F)cc2)CC1 [Compound 2195, 1-(prop-2-yn-1-yl)piperidin-4-yl (S)-1-(4-fluorophenyl)-3,4-dihydroisoquinoline-2(1H)-carboxylate]	1.7 µM
CN1CCC2(CC1)CCN(C(=O)N1CCc3ccccc3[C@@H]1c1ccc(F)cc1)C2 [Compound 2121]	> 10 µM
O=C(N[C@@H]1CN2CCC1CC2)C(=O)N1CCc2ccccc2[C@@H]1c1ccc(F)cc1 [Compound 2104]	1.61 µM
O=C([C@@H](O)CC12CCN(CC1)CC2)N1CCc2ccccc2[C@@H]1c1ccc(F)cc1 (single isomer, unassigned) [Compound 2153]	> 10 µM
O=S(=O)(CCN1CCc2ccccc2[C@@H]1c1ccc(F)cc1)C12CCN(CC1)CC2 [Compound 2131, (S)-4-((2-(1-(4-fluorophenyl)-3,4-dihydroisoquinolin-2(1H)-yl)ethyl)sulfonyl)quinuclidine]	4.19 µM
COC(=O)c1ccc2c(c1)CCN(C(=O)OCC13CCN(CC1)CC3)[C@H]2c1ccc(F)cc1 [Compound 2072]	8.08 µM
CN(CC1CCNCC1)C(=O)N1CCc2ccccc2[C@H]1c1ccc(F)cc1 [Compound 2183, 1-(4-fluorophenyl)-N-methyl-N-(piperidin-4-ylmethyl)-3,4-dihydroisoquinoline-2(1H)-carboxamide]	9.6 µM
CN1CC2OCC(OC(=O)N3CCc4ccccc4[C@@H]3c3ccc(F)cc3)C2C1 (single isomer, unassigned) [Compound 2076]	> 10 µM
O=C1C[C@@H](COC(=O)N2CCc3ccccc3[C@@H]2c2ccc(F)cc2)CCN1 (single isomer, unassigned) [Compound 2186, (1 S)-(2-oxopiperidin-4-yl)methyl 1-(4-fluorophenyl)-3,4-dihydroisoquinoline-2(1H)-carboxylate]	> 10 µM
CN1C2CCC1CC(OC(=O)N1CCc3ccccc3[C@@H]1c1ccc(F)cc1)C2 (stereo partly shown) [Compound 2007]	1.19 µM
O=C(O[C@@H]1CCCNC1)N1CCc2ccccc2[C@@H]1c1ccc(F)cc1 (single isomer, unassigned) [Compound 2181]	0.22 µM
CN1CCC(COC(=O)N2CCc3ccccc3[C@@H]2c2ccc(F)c(F)c2)CC1 [Compound 2138, (1-methylpiperidin-4-yl)methyl-1-(3,4-difluorophenyl)-3,4-dihydroisoquinoline-2(1H)-carboxylate]	1.21 µM
CN1CCC(COC(=O)N2CCc3ccccc3[C@@H]2c2ccc(F)cc2)CC1 [Compound 2173]	3.22 µM

same assay, conditions: Mus musculus, BV-2, PGRN assay, Table D; secreted mouse PGRN in cell culture medium, ELISA

Compound	EC50
CN(C)C1CCN(C(=O)N2CCc3ccccc3[C@@H]2c2ccc(F)cc2)C1 (stereo in doubt) [Compound 2311, ((R)-3-(dimethylamino)pyrrolidin-1-yl)((S)-1-(4-fluorophenyl)-3,4-dihydroisoquinolin-2(1H)-yl)methanone]	1.32 µM
CN1C[C@@H](NC(=O)N2CCc3ccccc3[C@@H]2c2ccc(F)cc2)C(F)(F)C1 [Compound 2293, (S)—N—((R)-4,4-difluoro-1-methylpyrrolidin-3-yl)-1-(4-fluorophenyl)-3,4-dihydroisoquinoline-2(1H)-carboxamide]	> 10 µM
N[C@@H]1CCN(C(=O)N2CCc3ccccc3[C@@H]2c2ccc(F)cc2)C1 [Compound 2287]	0.351 µM
O=C(O[C@H]1C[N@]2CC[C@H]1C2)N1CCc2ccccc2[C@@H]1c1ccc(F)cc1 [Compound 2204]	0.65 µM
NC[C@H]1CCN(C(=O)N2CCc3ccccc3[C@@H]2c2ccc(F)cc2)C1 [Compound 2288]	0.248 µM
CN1CC[C@@H](NC(=O)N2CCc3ccccc3[C@@H]2c2ccc(F)cc2)C1 [Compound 2245]	0.46 µM
O=C(O[C@H]1CNC[C@@H]1F)N1CCc2ccccc2[C@@H]1c1ccc(F)cc1 [Compound 2361, (3S,4S)-4-fluoropyrrolidin-3-yl (S)-1-(4-fluorophenyl)-3,4-dihydroisoquinoline-2(1H)-carboxylate]	0.365 µM
CN1[C@H]2CC[C@@H]1[C@@H](NC(=O)N1CCc3ccccc3[C@@H]1c1ccc(F)cc1)C2 [Compound 2226]	2.68 µM
O=C(N[C@@H]1CNCCOC1)N1CCc2ccccc2[C@@H]1c1ccc(F)cc1 (single isomer, unassigned) [Compound 2277]	1.06 µM
O=C(OC[C@@H]1CCN1)N1CCc2ccccc2[C@@H]1c1ccc(F)cc1 [Compound 2239, (S)-(S)-azetidin-2-ylmethyl 1-(4-fluorophenyl)-3,4-dihydroisoquinoline-2(1H)-carboxylate]	1.14 µM
O=C(N[C@@H]1CNCC1(F)F)N1CCc2ccccc2[C@@H]1c1ccc(F)cc1 (stereo in doubt) [Compound 2244, (1 S)—N-(4,4-difluoropyrrolidin-3-yl)-1-(4-fluorophenyl)-3,4-dihydroisoquinoline-2(1H)-carboxamide]	3.26 µM
O=C(N[C@H]1CNCC1(F)F)N1CCc2ccccc2[C@@H]1c1ccc(F)cc1 (stereo in doubt) [Compound 2243, (1 S)—N-(4,4-difluoropyrrolidin-3-yl)-1-(4-fluorophenyl)-3,4-dihydroisoquinoline-2(1H)-carboxamide]	0.36 µM
O=C(N[C@H]1CNCC12CC2)N1CCc2ccccc2[C@@H]1c1ccc(F)cc1 [Compound 2280]	1.18 µM
O=C(OC[C@]1(F)CCNC1)N1CCc2ccccc2[C@@H]1c1ccc(F)cc1 [Compound 2256]	0.17 µM
CN1C[C@@H](NC(=O)N2CCc3ccccc3[C@H]2c2ccc(F)cc2)C2(CC2)C1 (single isomer, unassigned) [Compound 2318]	3.35 µM
CN(C(=O)N1CCc2ccccc2[C@H]1c1ccc(F)cc1)[C@@H]1CCCNC1 (single isomer, unassigned) [Compound 2212]	3.05 µM
CN1C[C@H](NC(=O)N2CCc3ccccc3[C@@H]2c2ccc(F)cc2)C2(CC2)C1 [Compound 2315]	0.742 µM
O=C(O[C@H]1CNCC1(F)F)N1CCc2ccccc2[C@@H]1c1ccc(F)cc1 [Compound 2241]	8.79 µM

same assay, conditions: PGRN assay, Table C; secreted mouse PGRN in cell culture medium, ELISA

Compound	EC50
O=C(OC1[C@@H]2CC3C[C@@H]1CN(C3)C2)N1CCc2ccccc2[C@@H]1c1ccc(F)cc1 (stereo partly shown) [Compound 2098]	0.339 µM

same assay, conditions: PGRN assay, Table D; secreted mouse PGRN in cell culture medium, ELISA

Compound	EC50
O=C(N[C@H]1CNCCOC1)N1CCc2ccccc2[C@@H]1c1ccc(F)cc1 (single isomer, unassigned) [Compound 2276]	1.05 µM

same assay, conditions: mouse BV2 cells

Compound	secretion of progranulin
O=C(O[C@H]1CN2CCC1CC2)N1CCc2ccccc2[C@@H]1c1ccccc1 [Solifenacin, reference compound]	causes the secretion of progranulin
